According to patent US9062061B2, “Compound having PARP inhibitory activity” (SANTEN PHARMACEUTICAL CO., LTD., priority 2011, dated 2015):
Counter-ions that a name gives are not always drawn.

Assays:
human recombinant PARP1 = biological target: T1, human recombinant PARP1 (Homo sapiens, UniProt P09874); test: PARP inhibitory activity measurement test (Universal Colorimetric PARP Assay kit, Trevigen); format: biochemical; conditions: compound concentration: 10 μM, read-out: PARP1 inhibition rate (%)
T1 construct: purchased Trevigen 4677-096-K
T1 sequence (P09874 whole entry): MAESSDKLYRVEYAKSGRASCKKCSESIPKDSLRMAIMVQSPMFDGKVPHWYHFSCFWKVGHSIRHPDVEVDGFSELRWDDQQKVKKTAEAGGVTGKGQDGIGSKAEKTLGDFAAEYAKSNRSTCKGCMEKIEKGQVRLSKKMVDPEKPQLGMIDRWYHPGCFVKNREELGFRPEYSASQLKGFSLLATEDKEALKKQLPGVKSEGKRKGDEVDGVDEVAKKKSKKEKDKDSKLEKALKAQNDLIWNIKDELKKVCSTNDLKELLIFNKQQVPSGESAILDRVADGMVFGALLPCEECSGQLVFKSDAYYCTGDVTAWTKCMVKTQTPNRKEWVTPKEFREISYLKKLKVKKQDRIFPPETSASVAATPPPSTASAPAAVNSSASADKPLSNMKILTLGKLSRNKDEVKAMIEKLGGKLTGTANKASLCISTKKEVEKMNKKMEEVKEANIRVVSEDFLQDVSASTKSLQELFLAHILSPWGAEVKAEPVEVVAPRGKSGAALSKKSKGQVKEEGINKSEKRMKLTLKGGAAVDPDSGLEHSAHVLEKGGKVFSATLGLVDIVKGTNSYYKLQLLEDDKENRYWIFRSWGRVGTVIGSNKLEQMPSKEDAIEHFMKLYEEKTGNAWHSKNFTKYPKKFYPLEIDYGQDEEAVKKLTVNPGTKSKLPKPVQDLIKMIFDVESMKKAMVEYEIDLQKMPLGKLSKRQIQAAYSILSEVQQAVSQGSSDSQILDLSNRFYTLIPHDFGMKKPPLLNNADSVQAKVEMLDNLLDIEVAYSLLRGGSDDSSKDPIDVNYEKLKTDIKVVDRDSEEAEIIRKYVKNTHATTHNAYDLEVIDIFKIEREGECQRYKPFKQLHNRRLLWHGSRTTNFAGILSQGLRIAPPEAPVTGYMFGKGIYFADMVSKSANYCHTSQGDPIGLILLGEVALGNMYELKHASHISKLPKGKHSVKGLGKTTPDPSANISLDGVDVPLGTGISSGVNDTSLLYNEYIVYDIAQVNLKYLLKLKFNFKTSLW
Description: For evaluating PARP inhibitory activity of the present compound, inhibitory activity of each test compound against human recombinant PARP 1 was measured using Universal Colorimetric PARP Assay kit with Histone-Coated Strip Wells (Cat No.: 4677-096-K) available from Trevigen. The test was conducted according to the procedure in the instruction attached to this kit. The concrete operation will be described below.
After dissolving the test compound in dimethyl sulfoxide, the solution was diluted with a PARP buffer attached to the kit to prepare a 50 μM test compound solution.
In each well of a histone-coated 96-well plate, 10 μL of the test compound solution (50 μM), 15 μL of human recombinant PARP1 (33.3 Unit/mL) and 25 μL of PARP cocktail (containing activated DNA and biotinated NAD) were added, and incubated at room temperature for 1 hour (final reaction amount: 50 μL). Each well was washed twice with 200 μL of 0.1% Triton-X-containing Dulbecco's phosphate buffer, and further washed twice with 200 μL of Dulbecco's phosphate buffer, and then 50 μL of Strep-HRP was added, followed by incubation at room temperature for 1 hour. Each well was washed twice with 200 μL of 0.1% Triton-X-containing Dulbecco's phosphate buffer, and further washed twice with 200 μL of Dulbecco's phosphate buffer, and then 50 μL of TACS-Sapphire coloriometric substrate was added, followed by incubation at room temperature for 15 minutes. After stopping the reaction by adding 50 μL of 0.2 M HCl, absorbance at 450 nm (Abs 450) was measured by a microplate reader. The number of examples in each group was 1 to 2.
Using a well into which dimethyl sulfoxide and a PARP buffer were added in place of the test compound solution and human recombinant PARP1, the above operation was conducted as a negative control.
Using a well into which a PARP buffer containing dimethyl sulfoxide was added in place of the test compound solution, the above operation was conducted as a positive control.
PARP1 inhibition rate (%) was calculated according to the following Formula 1. PARP1 inhibition rate(%)=(AbsB−AbsX)/(AbsB−AbsA)×100 [Formula 1]
AbsA: absorbance of negative control (Abs 450)
AbsB: absorbance of positive control (Abs 450)
AbsX: absorbance of test compound-treated group (Abs 450)

[1] = test system: rat N-methyl-N-nitrosourea (MNU)-induced retinal degeneration model; test: Retinal degeneration inhibitory activity in rat MNU-induced model (retinal volume by OCT); format: in vivo; conditions: po, 168 h, seventh day, Brown Norway male rats, read-out: Retinal volume reduction inhibition rate (%); for inhibition in vivo at 10 mg/kg: test compound 10 mg/kg orally once 30 minutes before MNU
Description: For examining influence of the present compound on the retinal degeneration, retinal degeneration inhibitory activity of test compound was evaluated, using a rat N-methyl-N-nitrosourea (hereinafter, “MNU”)-induced retinal degeneration model. The rat MNU-induced retinal degeneration model is a model animal in which cell death of retinal photoreceptor cell is induced by administration of MNU which is a DNA alkylation agent, and is generally used as a model animal for chorioretinal degenerative diseases such as retinitis pigmentosa (Exp. Eye. Res., 84(2), 285-292 (2007)).
By the previous day of MNU administration, retinal volumes of 8-week-old Brown Norway male rats were measured by using optical coherence tomography (OCT) (product of Carl Zeiss, model number: STRATUS OCT Model 3000). An MNU administration liquid was intraperitoneally administered to the rats at a dose of 50 to 60 mg/kg, and on the seventh day after administration, retinal volumes were measured by using OCT. The normal control group underwent no treatment, and retinal volumes were measured on the same day as the MNU administration group. The number of examples in each group was 4 rats (8 eyes).
(Administration Method) • Test compound-administered group: A solution of each test compound suspended in 1% (w/v) methylcellulose aqueous solution was orally administered once 30 minutes before MNU administration at a dose of 1 to 30 mg/kg. • Normal control group and vehicle-administered group: 1% (w/v) methylcellulose aqueous solution was orally administered once 30 minutes before MNU administration.
According to the following Formula 2, retinal volume reduction inhibition rate (%) was calculated. Retinal volume reduction inhibition rate(%)=(RVX-pre/RVX-post−RVB-pre/RVB-post)/(RVA-pre/RVA-post−RVB-pre/RVB-post)×100 [Formula 2]
RVA-pre: retinal volume before MNU administration of normal control group (mm^3)
RVA-post: retinal volume on the seventh day after MNU administration of normal control group (mm^3)
RVB-pre: retinal volume before MNU administration of vehicle-administered group (mm^3)
RVB-post: retinal volume on the seventh day after MNU administration of vehicle-administered group (mm^3)
RVX-pre: retinal volume before MNU administration of test compound-administered group (mm^3)
RVX-post: retinal volume on the seventh day after MNU administration of test compound-administered group (mm^3)

Row | Compound | inhibition at 10 µM (human recombinant PARP1) | inhibition in vivo at 10 mg/kg ([1]; MNU 50 mg/kg i.p.) | inhibition in vivo at 30 mg/kg ([1]; MNU 60 mg/kg i.p., test compound 30 mg/kg orally once 30 minutes before MNU) | inhibition in vivo at 1 mg/kg ([1]; MNU 50 mg/kg i.p., test compound 1 mg/kg orally once 30 minutes before MNU)
1 | O=c1[nH]c2cc(CN3CCC(c4ccccc4)CC3)cn2c2ccccc12 [Compound 2-5, 2-(4-Phenylpiperidin-1-ylmethyl)pyrrolo[1,2-a]quinazolin-5(4H)-one] | 96% | 16% | – | –
2 | O=c1[nH]c2cc(CN3CC=C(c4ccc(Cl)cc4)CC3)cn2c2ccccc12 [Compound 2-7, 2-[4-(4-Chlorophenyl)-1,2,3,6-tetrahydropyridine-1-ylmethyl]pyrrolo[1,2-a]quinazolin-5(4H)-one] | 99% | 69% | – | –
3 | O=c1[nH]c2cc(CN3CC=C(c4ccc(F)cc4)CC3)cn2c2ccccc12 [Compound 2-8, 2-[4-(4-Fluorophenyl)-1,2,3,6-tetrahydropyridin-1-ylmethyl]pyrrolo[1,2-a]quinazolin-5(4H)-one] | 100% | 39% | – | –
4 | O=c1[nH]c2cc(CN3CCN(c4ccccc4F)CC3)cn2c2ccccc12 [Compound 2-9, 2-[4-(2-Fluorophenyl)piperazin-1-ylmethyl]pyrrolo[1,2-a]quinazolin-5(4H)-one] | 99% | 25% | – | –
5 | O=c1[nH]c2cc(CN3CCN(c4ccc(Cl)cc4)CC3)cn2c2ccccc12 [Compound 2-12, 2-[4-(4-Chlorophenyl)piperazin-1-ylmethyl]pyrrolo[1,2-a]quinazolin-5(4H)-one] | 100% | – | 47% | –
6 | O=c1[nH]c2cc(CN3CCC(c4ccc(F)cc4)CC3)cn2c2ccccc12 [Compound 2-14, 2-[4-(4-Fluorophenyl)piperidin-1-ylmethyl]pyrrolo[1,2-a]quinazolin-5(4H)-one] | 100% | 33% | – | –
7 | COc1ccc(N2CCN(Cc3cc4[nH]c(=O)c5ccccc5n4c3)CC2)cc1 [Compound 2-16, 2-[4-(4-Methoxyphenyl)piperazin-1-ylmethyl]pyrrolo[1,2-a]quinazolin-5(4H)-one] | 100% | 29% | – | –
8 | O=c1[nH]c2cc(CN3CCN(c4ccccn4)CC3)cn2c2ccccc12 [Compound 2-17, 2-[4-(Pyridin-2-yl)piperazin-1-ylmethyl]pyrrolo[1,2-a]quinazolin-5(4H)-one] | 100% | 48% | – | –
9 | O=c1[nH]c2cc(CN3CCN(c4ccc(Cl)cn4)CC3)cn2c2ccccc12 [Compound 2-30, 2-[4-(5-Chloropyridin-2-yl)piperazin-1-ylmethyl]pyrrolo[1,2-a]quinazolin-5(4H)-one] | 100% | 72% | – | –
10 | O=c1[nH]c2cc(CN3CCN(c4ccc(F)cc4F)CC3)cn2c2ccccc12 [Compound 2-35, 2-[4-(2,4-Difluorophenyl)piperazin-1-ylmethyl]pyrrolo[1,2-a]quinazolin-5(4H)-one] | 100% | 61% | – | –
11 | O=c1[nH]c2cc(CN3CCN(c4nccc5occc45)CC3)cn2c2ccccc12 [Compound 2-36, 2-[4-(Furo[3,2-c]pyridin-4-yl)piperazin-1-ylmethyl]pyrrolo[1,2-a]quinazolin-5(4H)-one] | 82% | – | – | –
12 | CC(C)Oc1ccc(N2CCN(Cc3cc4[nH]c(=O)c5ccccc5n4c3)CC2)cc1 [Compound 2-38, 2-[4-(4-Isopropoxyphenyl)piperazin-1-ylmethyl]pyrrolo[1,2-a]quinazolin-5(4H)-one] | 98% | – | – | –
13 | COc1cc(F)ccc1N1CCN(Cc2cc3[nH]c(=O)c4ccccc4n3c2)CC1 [Compound 2-39, 2-[4-(4-Fluoro-2-methoxyphenyl)piperazin-1-ylmethyl]pyrrolo[1,2-a]quinazolin-5(4H)-one] | 100% | 84% | – | –
14 | O=c1[nH]c2cc(CN3CCN(c4ccc5c(c4)OCO5)CC3)cn2c2ccccc12 [Compound 2-40, 2-[4-(1,3-Benzodioxol-5-yl)piperazin-1-ylmethyl]pyrrolo[1,2-a]quinazolin-5(4H)-one] | 100% | 88% | – | –
15 | O=c1[nH]c2cc(CN3CCN(c4ccc(F)cc4)CC3)cn2c2ccsc12 [Compound 2-41, 7-[4-(4-Fluorophenyl)piperazin-1-ylmethyl]pyrrolo[1,2-a]thieno[2,3-e]pyrimidin-4(5H)-one] | 100% | – | – | –
16 | O=c1[nH]c2cc(CN3CCN(c4ccc(Cl)cc4)CC3)cn2c2ccsc12 [Compound 2-42, 7-[4-(4-Chlorophenyl)piperazin-1-ylmethyl]pyrrolo[1,2-a]thieno[2,3-e]pyrimidin-4(5H)-one] | 100% | – | – | –
17 | O=c1[nH]c2cc(CN3CCCC3)cn2c2ccsc12 [Compound 2-43, 7-(Pyrrolidin-1-ylmethyl)pyrrolo[1,2-a]thieno[2,3-e]pyrimidin-4(5H)-one] | 91% | – | – | –
18 | O=c1[nH]c2cc(CN3CCN(c4ccccn4)CC3)cn2c2ccc(F)cc12 [Compound 2-44, 7-Fluoro-2-[4-(pyridin-2-yl)piperazin-1-ylmethyl]pyrrolo[1,2-a]quinazolin-5(4H)-one] | 98% | 81% | – | –
19 | O=c1[nH]c2cc(CN3CCN(c4ccc(F)cc4)CC3)cn2c2ccc(F)cc12 [Compound 2-45, 7-Fluoro-2-[4-(4-fluorophenyl)piperazin-1-ylmethyl]pyrrolo[1,2-a]quinazolin-5(4H)-one] | 100% | – | – | 81%
20 | CN(C)CCOc1cc(F)ccc1N1CCN(Cc2cc3[nH]c(=O)c4ccccc4n3c2)CC1 [Compound 2-46, 2-[4-[2-(2-Dimethylaminoethoxy)-4-fluorophenyl]piperazin-1-ylmethyl]pyrrolo[1,2-a]quinazolin-5(4H)-one] | 85% | – | – | –
21 | O=c1[nH]c2cc(CN3CCC(N4CCOCC4)CC3)cn2c2ccccc12 [Compound 2-47, 2-[4-(Morpholin-4-yl)piperidin-1-ylmethyl]pyrrolo[1,2-a]quinazolin-5(4H)-one] | 99% | – | – | –
22 | O=c1[nH]c2cc(CN3CCN(c4ccc(O)cc4)CC3)cn2c2ccccc12 [Compound 3-1, 2-[4-(4-Hydroxyphenyl)piperazin-1-ylmethyl]pyrrolo[1,2-a]quinazolin-5(4H)-one] | 100% | – | – | –
23 | O=C(c1cc2[nH]c(=O)c3ccccc3n2c1)N1CCCNCC1 [Compound 5-1, 2-(Homopiperazine-1-carbonyl)pyrrolo[1,2-a]quinazolin-5(4H)-one hydrochloride] | 99% | – | – | –
24 | O=C(c1cc2[nH]c(=O)c3ccccc3n2c1)N1CCNCC1 [Compound 5-2, 2-(piperazine-1-carbonyl)pyrrolo[1,2-a]quinazolin-5(4H)-one] | 85% | – | – | –
25 | O=C(c1cc2[nH]c(=O)c3ccccc3n2c1)N1CCCN(C(=O)C2CC2)CC1 [Compound 6-1, 2-[4-Cyclopropylcarbonylhomopiperazine-1-carbonyl]pyrrolo[1,2-a]quinazolin-5(4H)-one] | 90% | – | – | –
